Assay [1] concerns IL-12 production of LPS-activated monocytes. As to the kind of experiment: Inhibition of IL-12 production of LPS-activated human monocytes (ELISA of culture supernatant). The format is cell-based. As to conditions: 20 μg/ml LPS from E. coli, 24 hours; for IC50: Monocyte. The method, then: (§1) Stimulation of human monocytes with lipopolysaccharide for the secretion of IL-10 and IL-12:
(§2) Human monocytes were isolated from peripheral blood mononuclear cells (PBMC) that had been obtained by means of a ficoll density gradient centrifugation from heparinized full blood. For this purpose the PBMC were incubated with a monoclonal antibody that is directed against the monocyte-specific surface molecule CD14 and on which are coupled superparamagnetic microbeads (Miltenyi Biotech, Bergisch Gladbach). For the positive selection of the marked monocytes from the cell mixture of the PBMC, the total cell suspension was added to a column with ferromagnetic carrier matrix and this was placed in a magnetic field. In this way the cells that were loaded with microbeads were bound to the carrier matrix while unmarked cells passed through the column and were discarded. After removing the matrix from the magnetic field the antibody-loaded cells were eluted by rinsing the now demagnetized column with buffer. The purity of the CD14-positive monocyte population obtained in this way is about 95–98%. These monocytes were incubated for 1 hour at 37° C. and 5% CO2 in a density of 10^6 cells/ml culture medium (RPMI, supplemented with 10% fetal calf serum) with the test substances dissolved in DMSO. 20 μg/ml LPS from E. coli were then added. After 24 hours cell-free culture supernatants were taken and tested for their content of IL-10 as well as IL-12.
(§3) The concentration of IL-12 and IL-10 in the cell culture supernatants was determined by means of sandwich ELISAs using two anti-IL-12 and IL-10 monoclonal antibodies (Biosource Europe, Fleurus, Belgium). A reference standard curve with human IL-10 and IL-12 was included. The detection limit of the IL-12 ELISA was 10 pg/ml, and that of the IL-10 ELISA was 15 pg/ml.
In general terms: In an ELISA, binding on a coated surface is turned into a signal by an enzyme label.

Assay [2] relates to IL-10 production of LPS-activated monocytes. The assay can be described thus: Increase in IL-10 production of LPS-activated human monocytes (ELISA of culture supernatant). The assay is classed as cell-based. As to conditions: 20 μg/ml LPS from E. coli, 24 hours. The method, then:
as §1, §2, §3

Converted amounts (≈) assume the structure as drawn.

What is called IC50 is the concentration that gives 50% inhibition. Higher therefore signals lower potency. Regarding `Br.O=C1CCC(N2C=Nc3cc(Cl)ccc3C2)C(=O)N1` (stereo not drawn) [Example 1, 3-(7-chloro-4H-quinazolin-3-yl)piperidine-2,6-dione; hydrobromide], in assay [1], the “Inhibition of IL-12 Production Maximum (%)” value (“Inhibition … (%)” below) was determined as 99% and the IC50 came out at 0.005 µg/mL. The “Increase in IL-10 Production Maximum (%)” value in assay [2] is given as 360%.
As for `Br.O=C1CCC(N2C=Nc3ccccc3C2)C(=O)N1` (stereo not drawn) [Example 3, 3-(4H-quinazolin-3-yl)piperidine-2,6-dione; hydrobromide], in assay [1], the “Inhibition … (%)” value worked out at 98% and it took 0.01 µg/mL to reach half-maximal inhibition (IC50). Moreover, the “Increase in IL-10 Production Maximum (%)” value in assay [2] is reported as 230%.
As for `O=C1CCC(N2C=Nc3cccc(Cl)c3C2)C(=O)N1` (stereo not drawn) [Example 7a, 3-(5-chloro-4H-quinazolin-3-yl)piperidine-2.6-dione], in assay [1], the “Inhibition of IL-12 Production IC50” value turned out to be 0.001 µg/mL and the “Inhibition … (%)” value came out at 98%. For the same compound, in assay [2], the “Increase in IL-10 Production Maximum (%)” value was found to be 365%.
For the compound `Cl.O=C1CCC(N2C=Nc3cc(F)ccc3C2)C(=O)N1` (stereo not drawn) [Example 7f, 3-(7-fluoro-4H-quinazolin-3-yl)piperidine-2,6-dione; hydrochloride], in assay [1], the “Inhibition … (%)” value was determined as 98% and 0.0008 µg/mL corresponded to half-maximal inhibition (IC50). The “Increase in IL-10 Production Maximum (%)” value in assay [2] turned out to be 420%.
Regarding `O=C1CCC(N2C=Nc3cccc(F)c3C2)C(=O)N1` (stereo not drawn) [Example 7h, 3-(5-fluoro-4H-quinazolin-3-yl)piperidine-2.6-dione], in assay [1], the “Inhibition of IL-12 Production IC50” value turned out to be 0.006 µg/mL and the “Inhibition … (%)” value came out at 97%. Also, the “Increase in IL-10 Production Maximum (%)” value in assay [2] was 316%.
Turning to `O=C1CCC(N2C=Nc3cccc([N+](=O)[O-])c3C2)C(=O)N1` (stereo not drawn) [Example 7i, 3-(5-nitro-4H-ginazolin-3-yl)piperidine-2,6-dione], in assay [1], the “Inhibition of IL-12 Production IC50” value was 0.036 µg/mL and the “Inhibition … (%)” value is given as 96%. Moreover, the “Increase in IL-10 Production Maximum (%)” value in assay [2] was 211%.
With `Cc1cccc2c1CN(C1CCC(=O)NC1=O)C=N2` (stereo not drawn) [Example 7m, 3-(5-methyl-4H-quinazolin-3-yl)piperidine-2,6-dione], in assay [1], the “Inhibition … (%)” value is listed as 89% and inhibition was half-maximal at 0.05 µg/mL (≈ 0.194 µM) (IC50). Besides, the “Increase in IL-10 Production Maximum (%)” value in assay [2] is recorded as 202%.
As to `O=C1CCC(N2C=Nc3cc(F)c(F)cc3C2)C(=O)N1` (stereo not drawn) [Example 7n, 3-(6,7-difluoro-4H-quinazolin-3-yl)piperidine-2,6-dione], in assay [1], the “Inhibition … (%)” value was 84% and half-maximal inhibition (IC50) required 0.042 µg/mL (≈ 0.15 µM). For the same compound, the “Increase in IL-10 Production Maximum (%)” value in assay [2] is listed as 263%.
With `O=C1CCC(N2C(=O)c3ccccc3C2=O)C(=O)N1` (stereo not drawn) [Thalidomide, thalidomide, reference compound], in assay [1], the “Inhibition … (%)” value is listed as 80% and the IC50 was 0.1 µg/mL (≈ 0.387 µM). Also, in assay [2], the “Increase in IL-10 Production Maximum (%)” value is on record as 180%.

Source of the values: US7183274B2, “Piperidine-2,6-diones heterocyclically substituted in the 3-position” (Gruenenthal GmbH, priority 2001, dated 2007).
